How the values were obtained:
hMDMs = assay: Phagocytosis assay with pHrodo E. coli red beads; format: cell-based, human; conditions: GFP-transfected hMDMs relative to untransfected hMDMs
Method: Cells were seeded in 96 well plates at a density of 200,000 per well in triplicate wells and left to adhere overnight. The following day, medium was aspirated and replaced with TexMACS medium containing NucBlue reagent (Invitrogen) and incubated for 30 min at 37° C. to stain nuclei. Medium was aspirated, cells washed in PBS, and then 100 µl PBS was added to cells. 100 µl of pHrodo E. coli red beads (diluted 1:10 in PBS) was added to the cells, and the cells were observed using an Operetta (PerkinElmer) to photograph fluorescence every 5 minutes over 145 minutes using a 40X objective. Images were analysed using Columbus. Nuclei were identified by NucBlue staining, and pHrodo red fluorescence intensity was measured in a cytoplasmic ring region around the nucleus. Fluorescence is reported as average pHrodo red fluorescence per nucleus.

[1] = system: human monocyte-derived macrophages; assay: Phase/contrast microscopy of transfected macrophages cultured with STING inhibitor; format: cell-based
From the text: (D) In vitro phagocytosis assay of untransfected hMDMs (control) versus GFP-transfected macrophages treated with BX-795 (GFP + BX-795), with M2-like polarising factors (GFP + BX-795 + IL4/IL13 or IL10) or DMSO control (GFP). (E) Serum liver function tests and histological analysis of picrosirius red (PSR) staining of collagen in chronic CCl4mice treated with cryopreserved hMDM (cryo), GFP-transfected hMDM treated with DMSO (GFP), GFP-transfected hMDM treated with BX-795 (GFP+B) or PBS vehicle (vehicle). *p<0.05 one-way ANOVA.
Monocyte-derived macrophages were harvested, counted and resuspended at a density of 5 × 10^7 cells/mL of CliniMACS Electroporation Buffer (Miltenyi). 25-100 µg/mL of pMax-GFP plasmid (Lonza) was mixed with the cell suspension for electroporation. For electroporation, 100 µl of cell/plasmid mix was introduced into 0.2 cm electroporation cuvettes and electroporation conducted with the CliniMACS Prodigy Electroporator (Miltenyi). Parameters assessed were 1st pulse voltage and type, and 2nd pulse voltage, type and length. Following electroporation, cells were cultured as above, with or without the STING inhibitor BX-795 (Invivogen) up to a concentration of 10 µM.

In the case of O=C(NCCCNc1nc(Nc2cccc(NC(=O)N3CCCC3)c2)ncc1I)c1cccs1 [BX-795], the “phagocytic capacity (average fluorescence of pHRodo beads per cell), of non-genetically modified hMDMs” value (hMDMs) is reported as “approximately 66%”, the “cell health and GFP expression” value ([1]; inhibitor at 10 µM) is reported as “some loss of cells” and the “cell health and GFP expression” value ([1]; inhibitor up to 8 µM) is reported as “remained healthy and GFP-expressing”.
